Each structure is given as a SMILES string. pIC50: −log10 of the molar value.

The target of the assay is T1, human P2X4 (Homo sapiens, UniProt Q99571).
T1 construct: expressed in transfected cells
T1 sequence (Q99571 1-388): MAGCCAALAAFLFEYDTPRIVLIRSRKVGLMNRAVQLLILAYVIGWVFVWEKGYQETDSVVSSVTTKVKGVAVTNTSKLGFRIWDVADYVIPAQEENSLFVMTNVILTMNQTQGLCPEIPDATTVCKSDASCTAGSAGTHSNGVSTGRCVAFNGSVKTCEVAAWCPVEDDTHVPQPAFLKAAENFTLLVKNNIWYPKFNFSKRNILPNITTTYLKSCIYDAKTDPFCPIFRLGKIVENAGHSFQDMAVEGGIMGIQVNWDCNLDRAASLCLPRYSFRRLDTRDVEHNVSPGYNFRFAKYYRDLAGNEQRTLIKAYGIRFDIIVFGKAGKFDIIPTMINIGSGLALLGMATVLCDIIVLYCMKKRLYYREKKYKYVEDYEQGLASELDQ
Briefly: Human P2X4 HEK Cell FLIPR Assay. The class given is cell-based. As to conditions: HEK293 stably expressing human P2X4, agonist Bz-ATP 3 μM (EC80); for pIC50: read-out: Human P2X4 HEK Cells (FLIPR Assay) avg IC50. A digest of the protocol:
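Compounds were preincubated 30 min at room temperature on Fluo8-AM-loaded HEK293 cells stably expressing human P2X4. The response was the calcium fluorescence rise on Bz-ATP addition.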

As to `CC(=O)N(c1ccc(S(C)(=O)=O)c(Cl)c1)c1cc(NC(=O)Cc2c(Cl)cccc2Cl)ccn1` [Example 155, N-[3-Chlor-4-(methylsulfonyl)phenyl]-N-{4-[2-(2,6-dichlorphenyl)acetamido]pyridin-2-yl)acetamide], the “Human P2X4 HEK Cells (FLIPR Assay) avg Efficacy” value (“Human P2X4 HEK Cells” for short) was determined as 100% and the pIC50 is 6.47.
Turning to `CC(=O)N(c1ccc(S(C)(=O)=O)c(Cl)c1)c1cc(NC(=O)Cc2cccc(F)c2Cl)ccn1` [Example 156, N-{4-[2-(2-Chlor-3-fluorphenyl)acetamido]pyridin-2-yl}-N-[3-chlor-4-(methylsulfonyl)phenyl]acetamide], the “Human P2X4 HEK Cells” value was determined as 96% and the pIC50 was 6.29.
Take `CC(=O)N(c1ccc(S(C)(=O)=O)c(Cl)c1)c1cc(NC(=O)Cc2ccccc2Cl)ccn1` [Example 157, N-[3-Chlor-4-(methylsulfonyl)phenyl]-N-{4-[2-(2-chlorphenyl)acetamido]pyridin-2-yl}acetamide]: the “Human P2X4 HEK Cells” value came to 97% and the negative-log IC50 (pIC50) was 6.19.
For the molecule `CC(=O)N(c1ccc(S(C)(=O)=O)c(Cl)c1)c1cc(NC(=O)Cc2c(F)cccc2Cl)ccn1` [Example 158, N-{4-[2-(2-Chlor-6-fluorphenyl)acetamido]pyridin-2-yl}-N-[3-chlor-4-(methylsulfonyl)phenyl]acetamide], the “Human P2X4 HEK Cells” value was determined as 97% and the pIC50 was 6.19.
On the same counts, the results for `CC(=O)N(c1ccc(S(C)(=O)=O)c(Cl)c1)c1cc(NC(=O)Cc2ccc(F)cc2Cl)ccn1` [Example 159, N-{4-[2-(2-Chlor-4-fluorphenyl)acetamido]pyridin-2-yl}-N-[3-chlor-4-(methylsulfonyl)phenyl]acetamide] are 99% and 6.02.
For `COc1cc(F)cc(N(C(C)=O)c2cc(NC(=O)Cc3cccc(F)c3Cl)ccn2)c1` [Example 160, N-{4-[2-(2-Chlor-3-fluorphenyl)acetamido]pyridin-2-yl}-N-(3-fluor-5-methoxyphenyl)acetamide], the “Human P2X4 HEK Cells” value is 101% and the pIC50 was 6.42.
Consider `COc1cc(F)cc(N(C(C)=O)c2cc(NC(=O)Cc3ccccc3Cl)ccn2)c1` [Example 161, N-{4-[2-(2-Chlorphenyl)acetamido]pyridin-2-yl}-N-(3-fluor-5-methoxyphenyl)acetamide], for which the “Human P2X4 HEK Cells” value turned out to be 101% and the pIC50 was 6.32.
`COc1cc(F)cc(N(C(C)=O)c2cc(NC(=O)Cc3c(Cl)cccc3Cl)ccn2)c1` [Example 162, N-{4-[2-(2,6-Dichlorphenyl)acetamido]pyridin-2-yl}-N-(3-fluor-5-methoxyphenyl)acetamide]: the “Human P2X4 HEK Cells” value stood at 104% and the pIC50 was 6.24.
With `COc1cc(F)cc(N(C(C)=O)c2cc(NC(=O)Cc3ccc(F)cc3Cl)ccn2)c1` [Example 163, N-{4-[2-(2-Chlor-4-fluorphenyl)acetamido]pyridin-2-yl}-N-(3-fluor-5-methoxyphenyl)acetamide], the “Human P2X4 HEK Cells” value turned out to be 100% and the pIC50 was 6.18.
Regarding `COc1cc(F)cc(N(C(C)=O)c2cc(NC(=O)Cc3c(F)cccc3Cl)ccn2)c1` [Example 164, N-{4-[2-(2-Chlor-6-fluorphenyl)acetamido]pyridin-2-yl}-N-(3-fluor-5-methoxyphenyl)acetamide], the “Human P2X4 HEK Cells” value amounted to 100% and the negative-log IC50 (pIC50) was 6.17.
For `CC(=O)N(c1cc(NC(=O)Cc2c(Cl)cccc2Cl)ccn1)c1ccccc1C(F)F` [Example 165, N-{4-[2-(2,6-Dichlorphenyl)acetamido]pyridin-2-yl}-N-[2-(difluormethyl)phenyl]acetamide], the “Human P2X4 HEK Cells” value is recorded as 99% and the pIC50 was 6.40.
As to `CC(=O)N(c1cc(NC(=O)Cc2ccccc2Cl)ccn1)c1ccccc1C(F)F` [Example 166, N-{4-[2-(2-Chlorphenyl)acetamido]pyridin-2-yl}-N-[2-(difluormethyl)phenyl]acetamide], the “Human P2X4 HEK Cells” value is given as 97% and the pIC50 was 6.18.
On to `CC(=O)N(c1cc(NC(=O)Cc2cccc(F)c2Cl)ccn1)c1ccccc1C(F)F` [Example 167, N-{4-[2-(2-Chlor-3-fluorphenyl)acetamido]pyridin-2-yl}-N-[2-(difluormethyl)phenyl]acetamide], for which the “Human P2X4 HEK Cells” value came out at 100% and the pIC50 is 6.17.
As for `CC(=O)N(c1cc(NC(=O)Cc2c(F)cccc2Cl)ccn1)c1ccccc1C(F)F` [Example 168, N-{4-[2-(2-Chlor-6-fluorphenyl)acetamido]pyridin-2-yl}-N-[2-(difluormethyl)phenyl]acetamide], the “Human P2X4 HEK Cells” value was determined as 99% and the negative logarithm of the IC50 (pIC50) is 6.12.
The matching figures for `CC(=O)N(c1cc(NC(=O)Cc2ccc(F)cc2Cl)ccn1)c1ccccc1C(F)F` [Example 169, N-{4-[2-(2-Chlor-4-fluorphenyl)acetamido]pyridin-2-yl}-N-[2-(difluormethyl)phenyl]acetamide]: 101% and 6.09.
Take `CC(=O)N(c1cc(NC(=O)Cc2ccccc2Cl)ccn1)c1ccc(C)cc1C` [Example 170, N-{4-[2-(2-Chlorphenyl)acetamido]pyridin-2-yl}-N-(2,4-dimethylphenyl)acetamide]: the “Human P2X4 HEK Cells” value was determined as 104% and the pIC50 was 6.33.
Consider `CC(=O)N(c1cc(NC(=O)Cc2cccc(F)c2Cl)ccn1)c1ccc(C)cc1C` [Example 171, N-{4-[2-(2-Chlor-3-fluorphenyl)acetamido]pyridin-2-yl}-N-(2,4-dimethylphenyl)acetamide], for which the “Human P2X4 HEK Cells” value was determined as 103% and the pIC50 was 6.29.
For `CC(=O)N(c1cc(NC(=O)Cc2c(F)cccc2Cl)ccn1)c1ccc(C)cc1C` [Example 172, N-{4-[2-(2-Chlor-6-fluorphenyl)acetamido]pyridin-2-yl}-N-(2,4-dimethylphenyl)acetamide], the “Human P2X4 HEK Cells” value came to 104% and the pIC50 is 6.28.
In the case of `CC(=O)N(c1cc(NC(=O)Cc2c(Cl)cccc2Cl)ccn1)c1ccc(C)cc1C` [Example 173, N-{4-[2-(2,6-Dichlorphenyl)acetamido]pyridin-2-yl}-N-(2,4-dimethylphenyl)acetamide], the “Human P2X4 HEK Cells” value is listed as 104% and the pIC50 is 6.28.
In the case of `CC(=O)N(c1cc(NC(=O)Cc2ccc(F)cc2Cl)ccn1)c1ccc(C)cc1C` [Example 174, N-{4-[2-(2-Chlor-4-fluorphenyl)acetamido]pyridin-2-yl}-N-(2,4-dimethylphenyl)acetamide], the “Human P2X4 HEK Cells” value was 103% and the pIC50 is 6.28.
The matching figures for `CC(=O)N(c1cc(C)cc(C#N)c1)c1cc(NC(=O)Cc2ccccc2Cl)ccn1` [Example 175, N-{4-[2-(2-Chlorphenyl)acetamido]pyridin-2-yl}-N-(3-cyan-5-methylphenyl)acetamide]: 97% and 6.29.
For the molecule `CC(=O)N(c1cc(C)cc(C#N)c1)c1cc(NC(=O)Cc2c(Cl)cccc2Cl)ccn1` [Example 176, N-(3-Cyan-5-methylphenyl)-N-{4-[2-(2,6-dichlorphenyl)acetamido]pyridin-2-yl}acetamide], the “Human P2X4 HEK Cells” value is on record as 101% and the pIC50 is 6.25.
The matching figures for `CC(=O)N(c1cc(C)cc(C#N)c1)c1cc(NC(=O)Cc2cccc(F)c2Cl)ccn1` [Example 177, N-{4-[2-(2-Chlor-3-fluorphenyl)acetamido]pyridin-2-yl}-N-(3-cyan-5-methylphenyl)acetamide]: 96% and 6.24.
For the molecule `CC(=O)N(c1cc(C)cc(C#N)c1)c1cc(NC(=O)Cc2ccc(F)cc2Cl)ccn1` [Example 178, N-{4-[2-(2-Chlor-4-fluorphenyl)acetamido]pyridin-2-yl}-N-(3-cyan-5-methylphenyl)acetamide], the “Human P2X4 HEK Cells” value worked out at 99% and the pIC50 is 6.21.
`CC(=O)N(c1cc(C)cc(C#N)c1)c1cc(NC(=O)Cc2c(F)cccc2Cl)ccn1` [Example 179, N-{4-[2-(2-Chlor-6-fluorphenyl)acetamido]pyridin-2-yl}-N-(3-cyan-5-methylphenyl)acetamide]: the “Human P2X4 HEK Cells” value was found to be 98% and the pIC50 is 6.17.
On the same counts, the results for `CC(=O)N(c1ccc(C)c(Cl)c1)c1cc(NC(=O)Cc2ccccc2Cl)ccn1` [Example 180, N-(3-Chlor-4-methylphenyl)-N-{4-[2-(2-chlorphenyl)acetamido]pyridin-2-yl}acetamide] are 101% and 6.24.
Regarding `CC(=O)N(c1ccc(C)c(Cl)c1)c1cc(NC(=O)Cc2cccc(F)c2Cl)ccn1` [Example 181, N-{4-[2-(2-Chlor-3-fluorphenyl)acetamido]pyridin-2-yl}-N-(3-chlor-4-methylphenyl)acetamide], the “Human P2X4 HEK Cells” value came out at 101% and the pIC50 is 6.24.

Values taken from patent publication US20230257351A1, “SUBSTITUTED N-[…] HAVING P2X4 RECEPTOR ANTAGONISTIC ACTIVITY” (Bayer Aktiengesellschaft, priority 2020, published 2023).
